In US20190083459A1, “PHARMACEUTICAL COMPOSITION AND USE THEREOF” (WATERSTONE PHARMACEUTICALS(WUHAN) CO., LTD., priority 2016, published 2019):

Tests used:
[1] = tested on: NASH-modeled golden hamsters; assay: NASH-modeled golden hamster (method as Example 4, changed doses); assay type: in vivo; details: obeticholic acid 5 mg/kg
Procedure: The experimental method is referred to the Example 4, except for addition of Ezetimibe group (0.3 mg/kg), dosage change to 5 mg/kg obeticholic acid for the obeticholic acid group, as well as dosage change to 5 mg/kg obeticholic acid and 0.3 mg/kg Ezetimibe for the obeticholic acid+Ezetimibe group. Specifically, a normal group (A), a model group (B), an obeticholic acid group (C), an obeticholic acid+Ezetimibe group (D) and an Ezetimibe group (E) are included in this example.
Liver tissue samples from individual golden hamsters after treatment were subjected to paraffin-sectioning, with results shown in FIG. 3.

[2] = tested on: cytochrome p450; details: 14C as a marker; cited from earlier work
[3] = tested on: NAFLD-modeled golden hamsters; assay: Simple high-fat diet-induced NAFLD-modeled golden hamster; assay type: in vivo; details: obeticholic acid 1 mg/kg, Ezetimibe 1 mg/kg, x ± s; for ALP / ALT / AST / HDL-C / LDL-C / TC / TG: plasma
Text: Obeticholic acid and Ezetimibe each are formulated with 10% Kolliphor HS 15 (BASF, Lot. No. 21466288K0) to a desired concentration.
78 specific pathogen free (SPF) male golden hamsters were provided, each with a body weight (BW) around 70 to 90 g, and commercially available from Beijing Vital River Laboratory Animal Technology Co., Ltd. Animal permit number is SCXK (Jing) 2012-0001.
10 golden hamsters were fed with a base diet as a normal group, while 68 golden hamsters were fed with a high-fat diet formulated with 0.3% cholesterol, 12.5% palm oil and 87.2% base diet upon purchased. All of them had free access to water, and kept in a same light rhythm (day time/night time: 10 h/14 h). After 3 weeks of feed, the golden hamsters were fasted for 14 hours, with free access to water, and then sampled for blood in a volume of 0.8 mL from posterior orbital venous plexus the next day. The blood samples added with sodium heparin for anticoagulation were centrifuged at 5000 r·min^−1 for 10 minutes, and 300 μL of supernatant for each sample was transferred into an assay cup (in volume of microliter grade) of the Sysmex CHEX-180 automatic biochemical analyzer for determination of levels of TC, TG, LDL-C, HDL-C and ALT, with results for screening of the hamsters.
6 out of 10 golden hamsters fed with the base diet were selected as a normal group, while 30 out of 68 golden hamsters fed with the high-fat diet were grouped into 3 experimental groups randomly (i.e. 10 hamsters for each group), respectively named model group, obeticholic acid group (1 mg/kg) and obeticholic acid (1 mg/kg)+Ezetimibe (1 mg/kg) group. From the first administration at PM 4:00 of the day after grouping, the 3 experimental groups were started to be each administered in a dosage of 10 mL·kg^−1, where the model group was administered with 10% Kolliphor in an equal volume. During administration, the normal group was still fed with the base diet, and the 3 experimental groups were fed with the high-fat diet. At 2 weeks of administration, all the golden hamsters were fasted but accessible to water overnight, and anesthetized with ethyl ether on the morning of the next day for collection of blood samples (in a volume of 0.8 mL) from the posterior orbital venous plexus. The blood samples added with sodium heparin for anticoagulation were centrifuged at 5000 r·min^−1 for 10 minutes, and 300 μL of plasma for each sample was transferred into the Sysmex CHEX-180 automatic biochemical analyzer for determination of levels of TC, TG, LDL-C, HDL-C, ALT, AST and ALP. At 4 weeks of administration, plasma of each hamster was collected for determination of levels of TC, TG LDL-C, HDL-C, ALT, AST and ALP. Afterwards, the hamsters were anesthetized with ethyl ether deeply, followed by weighting and laparotomy by an abdominal median incision for observation of size, color and texture of liver. After photographed, the liver was taken out, washed with saline and dried with filter paper, and weighted for calculation of liver index. Subsequently, left lobe of liver was cut out quickly and placed into 10% of neutral buffered formalin for immobilization, followed by preparation of paraffin sections (with HE staining) for observation of change of liver tissue pathology.
The results are represented in x±s, and comparison among groups is performed by t-test.

[4] = patients in an obeticholic acid treatment group; cited from earlier work
[5] = after 4 weeks of administration
[6] = after 2 weeks of administration

O=C1[C@H](CC[C@H](O)c2ccc(F)cc2)[C@@H](c2ccc(O)cc2)N1c1ccc(F)cc1 [Ezetimibe]
ALP level ([1]; Ezetimibe 0.3 mg/kg): reduces ALP level slightly | fat content in liver cells (pathological sections of liver tissues, FIG. 3) ([1]; Ezetimibe 0.3 mg/kg): not reducing fat content in liver significantly | infiltration and aggregation of inflammatory cells (pathological sections of liver tissues, FIG. 3) ([1]; Ezetimibe 0.3 mg/kg): ameliorating | level of LDL in plasma ([1]; Ezetimibe 0.3 mg/kg): reduces levels of triglyceride, cholesterol, LDL, liver function enzymes in plasma significantly | level of cholesterol in plasma ([1]; Ezetimibe 0.3 mg/kg): reduces levels of triglyceride, cholesterol, LDL, liver function enzymes in plasma significantly | level of triglyceride in plasma ([1]; Ezetimibe 0.3 mg/kg): reduces levels of triglyceride, cholesterol, LDL, liver function enzymes in plasma significantly | levels of liver function enzymes (alanine aminotransferase and aspartate aminotransferase) in plasma ([1]; Ezetimibe 0.3 mg/kg): reduces levels of triglyceride, cholesterol, LDL, liver function enzymes in plasma significantly | metabolism by a primary drug metabolic enzyme (cytochrome p450) [2]: barely metabolized

CC[C@H]1[C@@H](O)[C@@H]2[C@H](CC[C@]3(C)[C@@H]([C@H](C)CCC(=O)O)CC[C@@H]23)[C@@]2(C)CC[C@@H](O)C[C@@H]12 [Obeticholic acid, obeticholic acid]
liver index (%) [3, 5]: 5.15 ± 0.33% | ALP [3, 6]: 190.20 ± 26.30 U · L^−1 | ALT [3, 6]: 120.50 ± 41.78^ U · L^−1 | AST [3, 6]: 59.20 ± 14.01 U · L^−1 | HDL-C [3, 6]: 2.70 ± 0.37 mmol/L | LDL-C [3, 6]: 7.07 ± 3.22 mmol/L | TC [3, 6]: 14.32 ± 3.15^ mmol · L^−1 | TG [3, 6]: 2.20 ± 0.52 mmol/L | ALP [3, 5]: 196.30 ± 18.91 U · L^−1 | ALT [3, 5]: 165.20 ± 44.90 U · L^−1 | AST [3, 5]: 80.80 ± 13.13 U · L^−1 | HDL-C [3, 5]: 3.51 ± 0.71 mmol/L | LDL-C [3, 5]: 16.04 ± 13.52 mmol/L | TC [3, 5]: 22.89 ± 5.91 mmol/L | TG [3, 5]: 2.07 ± 0.97 mmol/L | blocking the progression of liver fibrosis (pathological sections of liver tissues) [1]: no effect | infiltration and aggregation of inflammatory cells (pathological sections of liver tissues, FIG. 3) ([1]; Ezetimibe 0.3 mg/kg): no effect | level of high density lipoprotein compared to a placebo control [4]: lower | level of low density lipoprotein compared to a placebo control [4]: higher | level of total cholesterol compared to a placebo control [4]: higher
